Measured values reported in patent US20210069351A1, “METHOD FOR SCREENING PAIN INHIBITING SUBSTANCE” (priority 2017, published 2021).

Columns and labels:
β-endorphin = assay: Neuropeptide and cytokine concentrations in spinal cord dorsal horn microdialysate after pregabalin; assay type: in vivo, rat; details: 30 mg/kg pregabalin, neuropathic pain model and control
Source text: Spared nerve injury (SNI) models were used to assess the concentration of a pain indicator substance present in a dorsal horn in the spinal cord. To generate an efficient neuropathic pain model, the rats were anesthetized under 3% isoflurane (Hana Pharm., South Korea), after incision on the left hind of the rat leg the common peroneal and the tibial nerve of three peripheral nerve branches in the sciatic nerve were axotomized and the sural nerve was spared then the surgical site was closed (FIG. 1). After surgery, animals were placed in the home cage to recover. 2 weeks after surgery, hypersensitivity will occur in the lateral area of the rat left hind paw.
Before inserting microdialysis probe into the tissue, the probe was immersed in 70% ethanol and washed for 15 minutes at the flow rate of 3.5 ul/min. Then, the probe was immersed in distilled water and washed for 15 minutes in the same protocol. When the washing step was completed, the probe was inserted at a depth of approximately 2 mm into the dorsal horn of the L1 spinal cord (FIG. 4). […]
For analysis of the neuropeptide and cytokine of the test samples was used using “Luminex 200 multiplex system” by multiplex cytokines assay. Ten most important of pain-related neuropeptides such as IFN-gamma, IL-1 beta, IL-6, IL-10, TNF-α, MCP-1, MIP-1α, BDNF, substance P and β-endorphin and cytokines were analyzed using a total of 4 kits.

[1] = Stability of GABA and glutamate test samples under storage, treatment and analysis conditions; assay type: physicochemical
Method: The test samples were stored in a freezer at −70° C., and thawed at room temperature before use. 20 μL of microdialysate was added to 20 μL of acetonitrile, well mixed (vortexing, 30 sec) and centrifuged at 3,000 rpm for 5 minutes. A supernatant was taken and injected by 5 μL for LC-MS/MS analysis.
Stability was tested under various conditions for which GABA and a glutamate test sample could be exposed.

CC(C)C[C@H](CN)CC(=O)O [pregabalin]
concentrations of β-endorphin in microdialysate (β-endorphin): significantly increased and then decreased

N[C@@H](CCC(=O)O)C(=O)O [Glutamate, glutamate]
Remaining, freeze/thaw ([1]; 3 cycles, 20 ng/mL): 104.1% | Remaining, freeze/thaw ([1]; 3 cycles, 100 ng/mL): 100.8% | Remaining, freeze/thaw ([1]; 3 cycles, 800 ng/mL): 101.9% | Remaining, autosampler tray ([1]; 4° C. for 6 h, 20 ng/mL): 106.5% | Remaining, autosampler tray ([1]; 4° C. for 6 h, 100 ng/mL): 102.3% | Remaining, autosampler tray ([1]; 4° C. for 6 h, 800 ng/mL): 101.1% | Remaining, microdialysis sample at RT ([1]; RT for 6 h, 20 ng/mL): 101.3% | Remaining, microdialysis sample at RT ([1]; RT for 6 h, 100 ng/mL): 97.3% | Remaining, microdialysis sample at RT ([1]; RT for 6 h, 800 ng/mL): 99.8% | Remaining, long term stability ([1]; −70° C. 1 month, 20 ng/mL): 104.2% | Remaining, long term stability ([1]; −70° C. 1 month, 100 ng/mL): 98.6% | Remaining, long term stability ([1]; −70° C. 1 month, 800 ng/mL): 96.0%

NCCCC(=O)O [GABA, γ-aminobutyric acid]
Remaining, freeze/thaw ([1]; 20 ng/mL): 103.1% | Remaining, freeze/thaw ([1]; 100 ng/mL): 106.7% | Remaining, freeze/thaw ([1]; 800 ng/mL): 101.6% | Remaining, long term stability ([1]; 1 month, 20 ng/mL): 101.8% | Remaining, long term stability ([1]; 1 month, 100 ng/mL): 102.3% | Remaining, long term stability ([1]; 1 month, 800 ng/mL): 97.7% | Remaining, autosampler tray ([1]; 6 h, 20 ng/mL): 105.4% | Remaining, microdialysis sample at RT ([1]; 6 h, 20 ng/mL): 105.3% | Remaining, autosampler tray ([1]; 6 h, 100 ng/mL): 101.2% | Remaining, microdialysis sample at RT ([1]; 6 h, 100 ng/mL): 100.6% | Remaining, autosampler tray ([1]; 6 h, 800 ng/mL): 92.1% | Remaining, microdialysis sample at RT ([1]; 6 h, 800 ng/mL): 91.8%
